≈ marks a conversion by molar mass, not a printed value.
Experiments:
[1] = tested on: HeLa (Human cervical cancer cell line); assay: In vitro cytotoxicity, Sulforhodamine B (SRB) assay; assay type: cell-based; settings: for GI50: Homo sapiens, HeLa, SRB assay, concentration range 50 to 0.78 μg/mL; for cell inhibition HeLa: up to 50 µg/mL concentration, Figure 4
Procedure: To examine the safety of the synthesized compounds, the compounds 4e and 4k were evaluated for their toxicity against the HeLa human cervical cancer cell line by a Sulforhodamine B (SRB) assay using Adriamycin as a standard drug.
In vitro cytotoxicity study of the synthesized compounds 4e and 4k was performed against HeLa (Human cervical cancer cell line) by Sulforhodamine B (SRB) assay using Adriamycin as positive control. The images were captured using an Eclipse Ti-S Inverted Research Microscope (Nikon, Tokyo, Japan). Image processing software used was NIS-Elements.

[2] = tested on: Swiss albino mice; assay: In vivo acute oral toxicity study and behavioral study (OECD guideline no. 425); design: key to Straub Tail / Pilo Erection / Convulsions / Normal Motor Activity / Stereotypy / Tremors / Sedation / Hypnosis / Muscle Spasms / Toxicity / Deaths / Eye Lacrimation / Salivation / Diarrhea / Respiration Problems: N: no; Y: yes; settings: for Convulsions / Deaths / Diarrhea / Eye Lacrimation / Hypnosis / Muscle Spasms / Normal Motor Activity / Pilo Erection / Respiration Problems / Salivation / Sedation / Stereotypy / Straub Tail / Toxicity / Tremors: Swiss albino mice, single oral dose 100–2000 mg/kg; for lethal dose: oral, mice, body weight, no mortality up to 2000 mg/kg
Procedure: In vivo acute oral toxicity study and gross behavioral studies of the newly synthesized compounds 4e and 4k is shown in Table 5.
425 using Swiss albino mice (18–22 gm weight) quarantined at animal house at Y.B. Chavan College of Pharmacy, Aurangabad IAEC approval number CPCSEA/IAEC/P’col-52/2015-16/115. Each group consists of six mice (overnight fasted) and kept in colony cage at 25 ± 2 °C with 55% relative humidity and 12 h of light and dark cycle. A specified dose of 100, 250, 500, 750, 1000, 1500 and 2000 mg/kg body weight of mice was administered orally as a single dose. The acute toxic symptoms and the behavioral changes produced by the synthesized compounds were observed continuously for 4 h periods at 8th, 12th and 24th h on set of toxic symptoms and the gross behavioral changes were also recorded. These animals were maintained for further 10 days with observation made daily.

[3] = tested on: Bacillus subtilis (NCIM-2063); assay: In vitro antibacterial activity, MIC; assay type: cell-based; settings: average of three readings; for MIC: Bacillus subtilis, NCIM2063
Procedure: (§1) The newly synthesized compounds 4a–o were screened for their in vitro antibacterial activity against the three different bacterial strains. Minimum inhibitory concentration (MIC) values for antibacterial activity were determined by standard agar method using Ampicillin as standard drug. Dimethyl sulfoxide (DMSO) was used as solvent control. […] Compound 4e bearing a 2,4-difluoro group on the phenyl ring was 48 µg/mL for E. coli, 50 µg/mL for B. subtilis and 52 µg/mL for S. aureus.
(§2) All the synthesized compounds were screened for their in vitro antifungal and antibacterial activity. The antibacterial activity was evaluated against three human pathogenic bacterial strains: Escherichia coli (NCIM-2256), Bacillus subtilis (NCIM-2063) and Staphylococcus aureus (NCIM-2901). The antifungal activity was evaluated against seven human pathogenic fungal strains: Candida albicans (NCIM-3471), Candida glabrata (NCYC-388), Fusarium oxysporum (NCIM-1332), Aspergillus fumigates (NCIM-902), Aspergillus flavus (NCIM-539), Aspergillus niger (NCIM-1196) and Cryptococcus neoformans (NCIM-576), which are often encountered clinically. Miconazole was used as standard drug. Minimum inhibitory concentration (MIC) values were determined as per CLSI guidelines. Dimethyl sulfoxide (DMSO) was used as solvent control.
(§3) All the synthesized compounds 4a–o were screened for their in vitro antibacterial activity. Minimum inhibitory concentration (MIC) values were determined using method recommended by National Committee for Clinical Laboratory Standards (NCCLS). In vitro antibacterial activities of the synthesized compounds 4a–o were tested in Nutrient Broth (NB) for bacteria by the two fold serial dilution method. Seeded broth (broth containing microbial spores) was prepared in NB from 24 h old bacterial cultures on nutrient agar (Hi-media) at 37± 1 °C. The bacterial suspension was adjusted with sterile saline to a concentration of 1× 10^−4–10^−5 C.F.U. The synthesized compounds and standard drug Ampicillin were prepared by two fold serial dilutions to obtain the required concentrations of 400, 200, 100, 50, 25, 12.5, 6.25 and 3.13 μg/mL. The tubes were incubated in BOD incubators at 37± 1 °C for bacteria. The MICs were recorded by visual observations after 24 h (for bacteria) of incubation.

[4] = tested on: Staphylococcus aureus (NCIM-2901); assay: In vitro antibacterial activity, MIC; assay type: cell-based; settings: average of three readings; for MIC: Staphylococcus aureus, NCIM2901
Procedure: as §1, §2, §3

[5] = tested on: Escherichia coli (NCIM-2256); assay: In vitro antibacterial activity, MIC; assay type: cell-based; settings: average of three readings; for MIC: Escherichia coli, NCIM2256
Procedure: as §1, §2, §3

[6] = tested on: Cryptococcus neoformans (NCIM-576); assay: In vitro antifungal activity, MIC, agar method (CLSI); assay type: cell-based; settings: NCIM576, average of three readings
Procedure: (§4) The newly synthesized 3-((dicyclohexylamino)(substituted phenyl/heteryl)methyl)-4-hydroxy-2H-chromen-2-one derivatives 4a–o were screened for their in vitro antifungal activity against different yeast and filamentous fungal pathogens. […] Dimethyl sulfoxide (DMSO) was used as solvent control.
as §2, with “Miconazole was used as standard drug.” left out
(§5) Antifungal activity was determined as per CLSI (formerly, NCCLS) guidelines. […] The medium yeast nitrogen base was dissolved in phosphate buffer pH 7 and it was autoclaved at 110 °C for 10 min. With each set a growth control without the antifungal agent and solvent control DMSO were included. The fungal strains were freshly sub cultured on to Sabouraud dextrose agar (SDA) and incubated at 25 °C for 72 h. The fungal cells were suspended in sterile distilled water and diluted to get 10^5 cells/mL. Ten μL of the standardized suspension was inoculated onto the control plates and the media incorporated with the antifungal agents. The inoculated plates were incubated at 25 °C for 48 h. The readings were taken at the end of 48 h and 72 h. The MIC was the lowest concentration of drug preventing growth of macroscopically visible colonies on drug containing plates when there was visible growth on the drug free control plates.

[7] = tested on: Aspergillus niger (NCIM-1196); assay: as above; assay type: cell-based; settings: NCIM1196, average of three readings
Procedure: as §4
as §2, with “Miconazole was used as standard drug.” left out
as §5

[8] = tested on: Candida glabrata (NCYC-388); assay: as above; assay type: cell-based; settings: Nakaseomyces glabratus; average of three readings
Procedure: as §4
as §2, with “Miconazole was used as standard drug.” left out
as §5

[9] = tested on: Candida albicans (NCIM-3471); assay: as above; assay type: cell-based; settings: NCIM3471, average of three readings
Procedure: as §4
as §2, with “Miconazole was used as standard drug.” left out
as §5

[10] = tested on: Aspergillus flavus (NCIM-539); assay: as above; assay type: cell-based; settings: NCIM539, average of three readings
Procedure: as §4
as §2, with “Miconazole was used as standard drug.” left out
as §5

[11] = tested on: Fusarium oxysporum (NCIM-1332); assay: as above; assay type: cell-based; settings: NCIM1332, average of three readings
Procedure: as §4
as §2, with “Miconazole was used as standard drug.” left out
as §5

[12] = tested on: Aspergillus fumigates (NCIM-902); assay: as above; assay type: cell-based; settings: NCIM902, average of three readings
Procedure: as §4
as §2, with “Miconazole was used as standard drug.” left out
as §5

[13] = tested on: ergosterol biosynthesis in C. albicans; assay: Ergosterol extraction and quantitation assay; assay type: cell-based, Candida albicans (NCIM-3471); settings: at the MIC value (25 µg/mL), C. albicans NCIM3471
Procedure: A single Candida albicans (NCIM-3471) colony from an overnight Sabouraud dextrose agar plate culture was used to inoculate 50 mL of Sabouraud dextrose broth for control and for various concentrations of the molecules. […] The net weight of the cell pellet was determined. […] Cell suspensions were transferred to sterile borosilicate glass screw-cap tubes and were incubated in an 85 °C water bath for one hour. Following incubation, the tubes were allowed to cool. […] The heptane layer was transferred to a clean borosilicate glass screw-cap tube and stored at −20 °C. […] The absence of detectable ergosterol in extracts was indicated by a flat line.

`COc1cccc2c1C(=O)c1c(O)c3c(c(O)c1C2=O)C[C@@](O)(C(=O)CO)C[C@@H]3O[C@H]1C[C@H](N)[C@H](O)[C@H](C)O1` [Adriamycin, reference compound] showed a GI50 [1] of 0.5 µg/mL (≈ 0.92 µM).

For `O=c1oc2ccccc2c(O)c1C(c1ccc(F)cc1F)N(C1CCCCC1)C1CCCCC1` (stereo not drawn) [Compound 4e, 3-((Dicyclohexylamino)(2,4-difluorophenyl)methyl)-4-hydroxy-2H-chromen-2-one], the Convulsions [2] was “N”, the Deaths [2] was “N” and the Diarrhea [2] was “N”. For the same compound, the “Eye Lacrimation” value [2] was “N”, the Hypnosis [2] was “N” and the “Muscle Spasms” value [2] was “N”. The “Normal Motor Activity” value [2] was “Y”, the “Pilo Erection” value [2] was “N” and the “Respiration Problems” value [2] was “N”. For the same compound, the Salivation [2] was “N”, the Sedation [2] was “N” and the Stereotypy [2] was “N”. For the same compound, the “Straub Tail” value [2] was “N”, the Toxicity [2] was “N” and the Tremors [2] was “N”. For the same compound, the lethal dose [2] was “above 2000 mg/kg”, the MIC [3] was 50 µg/mL (≈ 107 µM) and the “MIC Bacillus subtilis” value [3] was 50 µg/mL (≈ 107 µM). For the same compound, the MIC [4] was 52 µg/mL (≈ 111 µM), the “MIC Staphylococcus aureus” value [4] was 52 µg/mL (≈ 111 µM) and the MIC [5] was 48 µg/mL (≈ 103 µM). For the same compound, the “MIC Escherichia coli” value [5] was 48 µg/mL (≈ 103 µM), the GI50 [1] was > 50 µg/mL and the “cell inhibition HeLa” value [1] was “did not take place”. The MIC [6] was 12 µg/mL (≈ 25.7 µM), the MIC [7] was 12 µg/mL (≈ 25.7 µM) and the MIC [8] was 26 µg/mL (≈ 55.6 µM). For the same compound, the MIC [9] was 28 µg/mL (≈ 59.9 µM), the MIC [10] was 12 µg/mL (≈ 25.7 µM) and the MIC [11] was 30 µg/mL (≈ 64.2 µM). The MIC [12] was 28 µg/mL (≈ 59.9 µM).

With `COc1cc(C(c2c(O)c3ccccc3oc2=O)N(C2CCCCC2)C2CCCCC2)ccc1O` (stereo not drawn) [Compound 4k, 3-((Dicyclohexylamino)(4-hydroxy-3-methoxyphenyl)methyl)-4-hydroxy-2H-chromen-2-one] the “UV sterol profile, ergosterol peak at 281.5 nm” value [13] was “almost a flat curve”, the Convulsions [2] was “N” and the Deaths [2] was “N”. For the same compound, the Diarrhea [2] was “N”, the “Eye Lacrimation” value [2] was “N” and the Hypnosis [2] was “N”. For the same compound, the “Muscle Spasms” value [2] was “N”, the “Normal Motor Activity” value [2] was “Y” and the “Pilo Erection” value [2] was “N”. The “Respiration Problems” value [2] was “N”, the Salivation [2] was “N” and the Sedation [2] was “N”. For the same compound, the Stereotypy [2] was “N”, the “Straub Tail” value [2] was “N” and the Toxicity [2] was “N”. The Tremors [2] was “N”, the lethal dose [2] was “above 2000 mg/kg” and the MIC [3] was 55 µg/mL (≈ 115 µM). For the same compound, the MIC [4] was 54 µg/mL (≈ 113 µM), the MIC [5] was 55 µg/mL (≈ 115 µM) and the GI50 [1] was > 50 µg/mL. The “cell inhibition HeLa” value [1] was “did not take place”, the MIC [6] was 15 µg/mL (≈ 31.4 µM) and the MIC [7] was 15 µg/mL (≈ 31.4 µM). For the same compound, the MIC [8] was 30 µg/mL (≈ 62.8 µM), the MIC [9] was 25 µg/mL (≈ 52.3 µM) and the MIC [10] was 12 µg/mL (≈ 25.1 µM). It also gave an MIC [11] of 28 µg/mL (≈ 58.6 µM) and an MIC [12] of 38 µg/mL (≈ 79.6 µM).

With `O=c1oc2ccccc2c(O)c1C(c1ccco1)N(C1CCCCC1)C1CCCCC1` (stereo not drawn) [Compound 4o, 3-((Dicyclohexylamino)(furan-2-yl)methyl)-4-hydroxy-2H-chromen-2-one] the melting point was 148 to 150 °C, the MIC [3] was 74 µg/mL (≈ 176 µM) and the MIC [4] was 70 µg/mL (≈ 166 µM). For the same compound, the MIC [5] was 66 µg/mL (≈ 157 µM), the MIC [6] was 48 µg/mL (≈ 114 µM) and the MIC [7] was 49 µg/mL (≈ 116 µM). For the same compound, the MIC [8] was 55 µg/mL (≈ 130 µM), the MIC [9] was 56 µg/mL (≈ 133 µM) and the MIC [10] was 46 µg/mL (≈ 109 µM). The MIC [11] was 55 µg/mL (≈ 130 µM) and the MIC [12] was 65 µg/mL (≈ 154 µM).

From paper PMC6152127, “Facile Synthesis of Novel Coumarin Derivatives, Antimicrobial Analysis, Enzyme Assay, Docking Study, ADMET Prediction and Toxicity Study” (Molecules : A Journal of Synthetic Chemistry and Natural …, 2017)
